Structures can show the parent of a compound that is named as a salt.
Experiments:
Assay type in all cases: physicochemical
[1] = Determination of the solubility in water (solvent addition technique); details: 25 °C, thermodynamic from solid, in water at 25°C, estimated by solvent addition
Procedure: About 10 mg of crystalline betrixaban salt were weighed out into a vial. Water was added to the vial in aliquots of 500 µL and 200 µL until the salt was dissolved. In between the water additions the samples was sonicated for about 5 min, followed by shaking at 25°C for about 10 to 15 min.

[2] = Gravimetric moisture sorption/desorption (GMSD) isotherms; details: for hygroscopicity according to the GMSD isotherms: 25 ± 0.1°C, 0 to 95% RH; for water: when measured at 0 to 95% RH and 25 ± 0.1°C
Procedure: Gravimetric moisture sorption/desorption
Gravimetric moisture sorption/desorption (GMSD) isotherms were recorded with an SPSx-1µ moisture sorption analyzer (ProUmid, Ulm). The measurement cycle was started at ambient relative humidity (RH) of 30%. Relative humidity was then decreased to 5% RH in 5% steps, followed by a further decrease to 3% RH and to 0% RH. For this isotherm, as black filled square with a white x inside is used in the respective figures. Afterwards RH was increased from 0% to 95% RH in a sorption cycle and decreased to 0 % in a desorption cycle in 5% steps. Finally RH was increased to 40% RH in 5% steps. As to the isotherm obtained by the last step, a black filled square with a white star inside is used as symbol in the respective figures.
The time per step was set to a minimum of 2 hours and a maximum of 6 hours. If an equilibrium condition with a constant mass of ± 0.01 % within 1 hour was reached before the maximum time for all examined samples the sequential humidity step was applied before the maximum time of 6 hours. If no equilibrium was achieved the consecutive humidity step was applied after the maximum time of 6 hours. The temperature was 25 ± 0.1°C.

[3] = Determination of the moisture stability (climate chamber, PXRD analysis)
Procedure: Powder X-ray diffraction (PXRD) was performed with a PANalytical X'Pert PRO diffractometer equipped with a theta/theta coupled goniometer in transmission geometry, Cu-Kα1,2 radiation (wavelength 0.15419 nm) with a focusing mirror and a solid state PIXcel detector. Diffractograms were recorded at a tube voltage of 45 kV and a tube current of 40 mA, applying a stepsize of 0.013° 2-Theta with 40s per step (255 channels) in the angular range of 2° to 40° 2-Theta at ambient conditions. Determination of the moisture stability Moisture stability at accelerated stability conditions was performed in a Memmert constant climate chamber HPP110.

[4] = listed as crystalline form A of betrixaban hydrochloride, hydrochloride
[5] = 8 weeks at 40°C and a relative humidity of 75%
[6] = listed as crystalline form B of betrixaban hydrobromide, hydrobromide

SMILES	solubility [1] [µg/mL]	hygroscopicity according to the GMSD isotherms [2, 4]	water [2, 4] [%]	PXRD pattern after storage compared with the initial pattern (moisture stability test) [3, 5]	PXRD pattern after storage compared with the initial pattern (moisture stability test) ([3]; 4 weeks at 40°C and a relative humidity of 75%)	hygroscopicity according to the GMSD isotherms [2, 6]	water [2, 6] [%]
COc1ccc(NC(=O)c2ccc(C(=N)N(C)C)cc2)c(C(=O)Nc2ccc(Cl)cn2)c1 [Betrixaban hydrochloride, form A, betrixaban hydrochloride]	> 5000	non-hygroscopic	≤ 0.2	essentially identical	–	–	–
COc1ccc(NC(=O)c2ccc(C(=N)N(C)C)cc2)c(C(=O)Nc2ccc(Cl)cn2)c1 [Betrixaban hydrochloride, form B, betrixaban hydrochloride]	–	–	–	–	essentially identical	–	–
COc1ccc(NC(=O)c2ccc(C(=N)N(C)C)cc2)c(C(=O)Nc2ccc(Cl)cn2)c1 [Betrixaban hydrobromide, form B, betrixaban hydrobromide]	–	–	–	essentially identical	–	moderately hygroscopic	≤ 1.9
